The values below come from PubChem BioAssay (NCI).

Among the test systems are ACHN renal; COLO 205 colon; HCT-15 colon; HOP-62 NSCLC; KM12 colon; NCI-H226 lung; SF-539 CNS; SNB-19 CNS; U251 CNS; UO-31 renal.
Common to all, as to experiment: NCI anticancer screen, dose series, 48 h

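Each compound was tested at five concentrations against cells in 96-well plates for 48 hours. Abbreviation: GI50, concentration required for 50% inhibition of growth. Definition used: TGI = concentration required for complete inhibition of growth.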 Bounds are passed on as bounds.

For `C/C(=N\Nc1ccc([N+](=O)[O-])cc1)C(=O)N(C)Nc1ccccc1`, the TGI in the assay on ACHN renal was over 100 µM; in the assay with COLO 205 colon, over 100 µM; in the assay on HCT-15 colon, over 100 µM; in the assay with HOP-62 NSCLC, over 100 µM; in the assay on KM12 colon it was 64.6 µM; in the assay with NCI-H226 lung, over 100 µM. Besides, the TGI in the assay on SF-539 CNS, in the assay on SNB-19 CNS, in the assay with U251 CNS and in the assay with UO-31 renal was over 100 µM throughout.
Consider `Cc1ccc(NC(=O)C(=O)Cc2nc3ccccc3o2)c(C)c1`, for which the TGI in the assay with ACHN renal, in the assay on COLO 205 colon, in the assay on HCT-15 colon, in the assay on HOP-62 NSCLC, in the assay on KM12 colon and in the assay on NCI-H226 lung was over 100 µM in each case. Also, the TGI in the assay with SF-539 CNS, with SNB-19 CNS, with U251 CNS and in the assay with UO-31 renal was over 100 µM in each case.
Regarding `FC(F)(F)c1ccc(-c2cnc(Br)nc2NC2CCCCCC2)cc1`, the GI50 in the assay on ACHN renal is over 100 µM; in the assay with COLO 205 colon, 83.3 µM; in the assay on HCT-15 colon, 55.2 µM; with HOP-62 NSCLC it was over 100 µM; in the assay on KM12 colon, 52 µM; in the assay on NCI-H226 lung, 24.6 µM. The GI50 with SF-539 CNS is over 100 µM; in the assay on SNB-19 CNS, over 100 µM; with U251 CNS it was 75 µM; in the assay with UO-31 renal it was 33.9 µM. Further, the TGI in the assay with ACHN renal, with COLO 205 colon, in the assay on HCT-15 colon, with HOP-62 NSCLC, in the assay on KM12 colon and in the assay with NCI-H226 lung was over 100 µM in each case. In addition, the TGI with SF-539 CNS, in the assay with SNB-19 CNS, in the assay with U251 CNS and in the assay on UO-31 renal was over 100 µM in each case.
For `CCN(CC)CCCNC(=O)Cc1ccccc1Nc1c(Cl)cccc1Cl`, the TGI worked out at 20.8 µM in the assay on ACHN renal; 28.3 µM in the assay with COLO 205 colon; 29.1 µM in the assay with HCT-15 colon; 29.9 µM with HOP-62 NSCLC; 39.3 µM in the assay on KM12 colon; 38.5 µM in the assay on NCI-H226 lung. Further, the TGI in the assay on SF-539 CNS came to 28.7 µM; in the assay on SNB-19 CNS, 31.8 µM; in the assay with U251 CNS it was 25.7 µM; in the assay with UO-31 renal it was 23.8 µM.
Regarding `COc1ccc(C(Nc2ncccn2)c2cc3c(cc2O)OCO3)cc1` (stereo not given), the TGI with ACHN renal was over 100 µM; in the assay on COLO 205 colon it was 70.6 µM; in the assay on HCT-15 colon it was 44.6 µM; in the assay with HOP-62 NSCLC it was 54.5 µM; in the assay on KM12 colon, 37.8 µM; in the assay with NCI-H226 lung, 44.6 µM. The TGI was 33.1 µM in the assay on SF-539 CNS, 31.1 µM in the assay on SNB-19 CNS, 28.7 µM in the assay with U251 CNS and 34.4 µM in the assay on UO-31 renal.
For `COc1cc(Br)c(CC2=NCCc3cc(OC)c(OC)cc32)cc1OC`, the TGI with ACHN renal, in the assay on COLO 205 colon, in the assay on HCT-15 colon, with HOP-62 NSCLC, in the assay on KM12 colon and with NCI-H226 lung was over 100 µM each time. The TGI with SF-539 CNS is 87 µM; with SNB-19 CNS, over 100 µM; in the assay on U251 CNS it was over 100 µM; in the assay on UO-31 renal it was 95.1 µM.
With `CN(Cc1cnc2nc(N)nc(N)c2n1)c1ccc(C(=O)NC(CCC(=O)O)C(=O)O)cc1` (stereo not given), the GI50 in the assay with ACHN renal was 0.292 µM; in the assay with HCT-15 colon, 0.0623 µM; in the assay on HOP-62 NSCLC, 0.394 µM; in the assay with KM12 colon, 0.0875 µM; in the assay with NCI-H226 lung it was 0.505 µM; in the assay on SF-539 CNS, 0.234 µM. The GI50 with U251 CNS is 0.435 µM; with UO-31 renal, 0.27 µM. Also, the TGI in the assay on ACHN renal, in the assay with COLO 205 colon, in the assay with HCT-15 colon, with HOP-62 NSCLC, in the assay on KM12 colon and in the assay with NCI-H226 lung was over 100 µM in each case. For the same molecule, the TGI in the assay with SF-539 CNS is over 25.3 µM; in the assay with SNB-19 CNS it was over 100 µM; in the assay on U251 CNS, over 100 µM; in the assay on UO-31 renal it was over 100 µM.
Take `COc1ccc(/C=C2\N=C3SC=C(N)N3C2=O)cc1`: the GI50 in the assay on ACHN renal is 0.711 µM; with COLO 205 colon it was 1.13 µM; with HCT-15 colon it was 0.817 µM; in the assay on HOP-62 NSCLC, 2.23 µM; in the assay with KM12 colon it was 3.08 µM; in the assay with NCI-H226 lung, 1.16 µM. Further, the GI50 in the assay with SF-539 CNS was 1.5 µM; in the assay with SNB-19 CNS, 3.32 µM; in the assay on U251 CNS, 1.32 µM; with UO-31 renal, 0.266 µM. The TGI in the assay on ACHN renal was 2.43 µM; in the assay with COLO 205 colon, 4.23 µM; in the assay with HCT-15 colon, 3.98 µM; in the assay with HOP-62 NSCLC, 15.7 µM; in the assay on KM12 colon, 15.6 µM; in the assay on NCI-H226 lung, 7.04 µM. For the same molecule, the TGI came to 4.07 µM in the assay on SF-539 CNS, 17 µM in the assay on SNB-19 CNS, 5.49 µM in the assay with U251 CNS and 1.61 µM in the assay with UO-31 renal.
Turning to `COc1ccc(C(=O)C=C2NCCN2)cc1`, the TGI in the assay on ACHN renal, in the assay with COLO 205 colon, in the assay on HOP-62 NSCLC, with KM12 colon, with NCI-H226 lung and in the assay on SF-539 CNS was over 100 µM throughout. Further, the TGI in the assay with SNB-19 CNS, in the assay on U251 CNS and in the assay on UO-31 renal was over 100 µM throughout.
For the molecule `CCCCCCCCCC(=O)CC(=O)c1c(O)cccc1O`, the TGI was 83.4 µM in the assay with ACHN renal; 35.8 µM with COLO 205 colon; over 100 µM in the assay with HOP-62 NSCLC; over 100 µM in the assay on KM12 colon; 70.2 µM in the assay with NCI-H226 lung; over 100 µM with SF-539 CNS. Further, the TGI with SNB-19 CNS was over 100 µM; in the assay with U251 CNS, 69.3 µM; in the assay on UO-31 renal, over 100 µM.
`COc1cccc(C2C(C(=O)Nc3cc(=O)n(C)c(=O)n3C)=C(C)NC(C)=C2C(=O)Nc2cc(=O)n(C)c(=O)n2C)c1O`: the TGI with ACHN renal, in the assay on COLO 205 colon, with HOP-62 NSCLC, with KM12 colon, in the assay on NCI-H226 lung and in the assay on SF-539 CNS was over 100 µM in each case. In addition, the TGI in the assay with SNB-19 CNS, with U251 CNS and in the assay on UO-31 renal was over 100 µM each time.
